Experimental data from ChEMBL document CHEMBL1201862, “PubChem BioAssay data set” (2004).
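Results reflect a 48-hour exposure of cells in 96-well plates to compound at five concentrations. GI50: concentration for 50% inhibition of growth.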 Activity calls are given as the source filed them. Cut-off read from the data, not from the text of the source: active = GI50 up to about 1.1 µM and inactive = higher.

Key:
Test in all cases: NCI tumour cell line growth inhibition, 48 h
[1] = test system: HT-29
[2] = test system: SNB-75
[3] = test system: DU-145
[4] = test system: 786-0
[5] = test system: IGROV-1
[6] = test system: LOX IMVI
[7] = test system: HCC 2998
[8] = test system: M14
[9] = test system: HCT-15
[10] = test system: HOP-62
[11] = test system: UO-31
[12] = test system: HCT-116
[13] = test system: NCI-H226
[14] = test system: A549
[15] = test system: SW-620
[16] = test system: T47D
[17] = test system: MOLT-4
[18] = test system: SF-539
[19] = test system: COLO 205
[20] = test system: OVCAR-8

SMILES | GI50 [1] | GI50 [2] | GI50 [3] | GI50 [4] | GI50 [5] | GI50 [6] | GI50 [7] | GI50 [8] | GI50 [9] [µM] | GI50 [10] | GI50 [11] | GI50 [12] | GI50 [13] | GI50 [14] | GI50 [15] | GI50 [16] | GI50 [17] | GI50 [18] | GI50 [19] | GI50 [20]
O=C1c2ccccc2C(=O)c2c(Nc3ccc4c5c(cccc35)C(=O)c3ccccc3-4)cccc21 | > 100 µM (inactive) | > 100 µM (inactive) | > 100 µM (inactive) | > 100 µM (inactive) | 71.1 µM (inactive) | > 100 µM (inactive) | > 100 µM (inactive) | > 100 µM (inactive) | > 100 | > 100 µM (inactive) | > 100 µM (inactive) | > 100 µM (inactive) | > 100 µM (inactive) | > 100 µM (inactive) | > 100 µM (inactive) | > 100 µM (inactive) | > 100 µM (inactive) | – | – | –
COC(C)C(O)(C(=O)OCC1=CCN2CCC(O)C12)C(C)(C)O (centres undefined) | > 100 µM (inactive) | > 100 µM (inactive) | > 100 µM (inactive) | > 100 µM (inactive) | > 100 µM (inactive) | > 100 µM (inactive) | > 100 µM (inactive) | > 100 µM (inactive) | > 100 | – | > 100 µM (inactive) | > 100 µM (inactive) | > 100 µM (inactive) | > 100 µM (inactive) | > 100 µM (inactive) | > 100 µM (inactive) | > 100 µM (inactive) | > 100 µM (inactive) | > 100 µM (inactive) | > 100 µM (inactive)
CC(C)(C)OC/C=C1\C(=O)O[C@H]2C[C@@H](O[Si](C)(C)C(C)(C)C)C[C@@H]12 | 73.6 µM (inactive) | 63.7 µM (inactive) | > 100 µM (inactive) | > 100 µM (inactive) | > 100 µM (inactive) | 98.2 µM (inactive) | > 100 µM (inactive) | 61.8 µM (inactive) | > 100 | 85.3 µM (inactive) | 53.8 µM (inactive) | 26.4 µM (inactive) | > 100 µM (inactive) | 69.2 µM (inactive) | > 100 µM (inactive) | 27.9 µM (inactive) | 25.1 µM (inactive) | – | > 100 µM (inactive) | 81.1 µM (inactive)
COc1ccc(Nc2ccc3ccccc3c2-c2c(O)ccc3ccccc23)cc1 | 16.1 µM (inactive) | 19.9 µM (inactive) | 17.5 µM (inactive) | 17.1 µM (inactive) | 11 µM (inactive) | 17.9 µM (inactive) | 15.7 µM (inactive) | – | 17.6 | 12.6 µM (inactive) | 13.6 µM (inactive) | 17.5 µM (inactive) | 16.6 µM (inactive) | – | 13.9 µM (inactive) | 15.6 µM (inactive) | 10.1 µM (inactive) | 25.7 µM (inactive) | 24 µM (inactive) | 18.1 µM (inactive)
COc1cc(C)cc2c(-c3c(O)cc(O)c4c3C[C@H](C)N[C@H]4C)cc(-c3cc(-c4c(O)cc(O)c5c4C[C@H](C)N[C@H]5C)c4cc(C)cc(OC)c4c3O)c(O)c12 | 36 µM (inactive) | > 100 µM (inactive) | > 100 µM (inactive) | 26.9 µM (inactive) | > 100 µM (inactive) | – | > 100 µM (inactive) | > 100 µM (inactive) | > 100 | 72.3 µM (inactive) | > 100 µM (inactive) | 54.1 µM (inactive) | > 100 µM (inactive) | > 100 µM (inactive) | > 100 µM (inactive) | 63.8 µM (inactive) | > 100 µM (inactive) | > 100 µM (inactive) | > 100 µM (inactive) | > 100 µM (inactive)
N#Cc1c(N)c2c(c(-c3ccccc3)c1-c1ccccc1)C(=O)N(NC(=O)c1ccccc1)C2=O | – | > 100 µM (inactive) | > 100 µM (inactive) | 76.9 µM (inactive) | 61.4 µM (inactive) | > 100 µM (inactive) | > 100 µM (inactive) | > 100 µM (inactive) | > 100 | – | 41.9 µM (inactive) | 19.6 µM (inactive) | > 100 µM (inactive) | > 100 µM (inactive) | > 100 µM (inactive) | 32.1 µM (inactive) | 40.6 µM (inactive) | 64.4 µM (inactive) | > 100 µM (inactive) | > 100 µM (inactive)
O=C1c2c(Br)sc(Br)c2C(NC(=O)C(F)(F)F)C1O (centres undefined) | 24.7 µM (inactive) | 27.9 µM (inactive) | 20.5 µM (inactive) | 19.3 µM (inactive) | 20.2 µM (inactive) | 21.8 µM (inactive) | 18.2 µM (inactive) | 20.6 µM (inactive) | 16.7 | – | 22.4 µM (inactive) | 18.1 µM (inactive) | 29.5 µM (inactive) | 25.3 µM (inactive) | 17.8 µM (inactive) | 24.4 µM (inactive) | 31.3 µM (inactive) | 15.7 µM (inactive) | 16.8 µM (inactive) | 20.3 µM (inactive)
CCOC(=O)c1c(-c2ccccc2)c(OC)cn1C | > 10 µM (inactive) | > 10 µM (inactive) | > 10 µM (inactive) | > 10 µM (inactive) | > 10 µM (inactive) | > 10 µM (inactive) | > 10 µM (inactive) | > 10 µM (inactive) | > 10 | > 10 µM (inactive) | – | > 10 µM (inactive) | > 10 µM (inactive) | > 10 µM (inactive) | > 10 µM (inactive) | > 10 µM (inactive) | > 10 µM (inactive) | > 10 µM (inactive) | > 10 µM (inactive) | > 10 µM (inactive)
C[C@H](C(O)CC(=O)C(C)(C)O)[C@H]1CC[C@@]2(C)[C@@H]3CC[C@H]4C(C)(C)[C@@H](OC5OC(COC6OC(CO)C(O)C(O)C6O)C(O)C(O)C5O)CC[C@]4(C)C3=CC[C@]12C (some centres undefined) | > 100 µM (inactive) | > 100 µM (inactive) | > 100 µM (inactive) | > 100 µM (inactive) | > 100 µM (inactive) | > 100 µM (inactive) | > 100 µM (inactive) | > 100 µM (inactive) | > 100 | > 100 µM (inactive) | > 100 µM (inactive) | > 100 µM (inactive) | > 100 µM (inactive) | > 100 µM (inactive) | > 100 µM (inactive) | > 100 µM (inactive) | – | > 100 µM (inactive) | > 100 µM (inactive) | > 100 µM (inactive)
O=C1Nc2ccc(Cl)cc2C(=O)N2CCC[C@@H]12 | > 100 µM (inactive) | > 100 µM (inactive) | > 100 µM (inactive) | > 100 µM (inactive) | > 100 µM (inactive) | > 100 µM (inactive) | > 100 µM (inactive) | > 100 µM (inactive) | > 100 | > 100 µM (inactive) | > 100 µM (inactive) | > 100 µM (inactive) | > 100 µM (inactive) | > 100 µM (inactive) | > 100 µM (inactive) | > 100 µM (inactive) | > 100 µM (inactive) | – | > 100 µM (inactive) | > 100 µM (inactive)
CCOC(=O)c1nc2ccccc2nc1NCc1ccc(OC)c(OC)c1 | > 100 µM (inactive) | > 100 µM (inactive) | > 100 µM (inactive) | > 100 µM (inactive) | > 100 µM (inactive) | > 100 µM (inactive) | > 100 µM (inactive) | – | > 100 | > 100 µM (inactive) | > 100 µM (inactive) | > 100 µM (inactive) | > 100 µM (inactive) | > 100 µM (inactive) | > 100 µM (inactive) | > 100 µM (inactive) | > 100 µM (inactive) | > 100 µM (inactive) | > 100 µM (inactive) | > 100 µM (inactive)
CCCCCCCCCCCCCCCCOP(=O)(O)OP(=O)(O)OCC1OC(n2cnc3c(N)ncnc32)C(O)C1O (centres undefined) | 39.9 µM (inactive) | 24.4 µM (inactive) | 69.3 µM (inactive) | 80.5 µM (inactive) | 66.8 µM (inactive) | > 100 µM (inactive) | 52.1 µM (inactive) | 64.9 µM (inactive) | > 100 | 30.5 µM (inactive) | 60.5 µM (inactive) | 45.5 µM (inactive) | 54.6 µM (inactive) | > 100 µM (inactive) | > 100 µM (inactive) | > 100 µM (inactive) | 23.5 µM (inactive) | – | > 100 µM (inactive) | 39.8 µM (inactive)
Oc1ccc2c3c1OC1c4[nH]ncc4C[C@H]4[C@@H](C2)N(CC2CC2)CC[C@]314 (some centres undefined) | > 100 µM (inactive) | 78.5 µM (inactive) | > 100 µM (inactive) | > 100 µM (inactive) | > 100 µM (inactive) | > 100 µM (inactive) | > 100 µM (inactive) | > 100 µM (inactive) | > 100 | > 100 µM (inactive) | > 100 µM (inactive) | > 100 µM (inactive) | > 100 µM (inactive) | > 100 µM (inactive) | – | > 100 µM (inactive) | > 100 µM (inactive) | – | > 100 µM (inactive) | > 100 µM (inactive)
COC(=O)[C@]1(c2cc3ccccc3[nH]2)CC2CN(C(=O)OCc3ccccc3)C1C=C2OC (some centres undefined) | 25.7 µM (inactive) | 23 µM (inactive) | 35.5 µM (inactive) | 36.7 µM (inactive) | 42.7 µM (inactive) | 34 µM (inactive) | 21.5 µM (inactive) | 20.8 µM (inactive) | 34.8 | 31 µM (inactive) | – | 28.8 µM (inactive) | 23.1 µM (inactive) | 31.5 µM (inactive) | 41.5 µM (inactive) | 35.8 µM (inactive) | 22.2 µM (inactive) | 25.4 µM (inactive) | 19 µM (inactive) | 43.4 µM (inactive)
CC(=O)C(CN1C(=O)c2ccccc2C1=O)C(C)=O | > 100 µM (inactive) | > 100 µM (inactive) | > 100 µM (inactive) | > 100 µM (inactive) | > 100 µM (inactive) | – | > 100 µM (inactive) | > 100 µM (inactive) | > 100 | > 100 µM (inactive) | > 100 µM (inactive) | > 100 µM (inactive) | > 100 µM (inactive) | > 100 µM (inactive) | > 100 µM (inactive) | > 100 µM (inactive) | – | > 100 µM (inactive) | > 100 µM (inactive) | > 100 µM (inactive)
